Experimental data reported in PubChem BioAssay (NCI).
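Interpolation was linear, between the two tested concentrations surrounding the appropriate level; five concentrations were tested over 48 hours in 96-well plates. GI50: concentration for 50% inhibition of growth. TGI denotes the concentration required for complete inhibition of growth.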

Legend:
Assay in all cases: NCI-60 cell line screen, 48 h
CCRF-CEM leukemia = tested on: CCRF-CEM leukemia
UACC-257 melanoma = tested on: UACC-257 melanoma
HT29 colon = tested on: HT29 colon
OVCAR-8 ovarian = tested on: OVCAR-8 ovarian
MOLT-4 leukemia = tested on: MOLT-4 leukemia
CAKI-1 renal = tested on: CAKI-1 renal
PC-3 prostate = tested on: PC-3 prostate
SF-295 CNS = tested on: SF-295 CNS
M14 melanoma = tested on: M14 melanoma
MDA-MB-468 breast = tested on: MDA-MB-468 breast
EKVX NSCLC = tested on: EKVX NSCLC
SF-268 CNS = tested on: SF-268 CNS
SN12C renal = tested on: SN12C renal
IGROV1 ovarian = tested on: IGROV1 ovarian
OVCAR-3 ovarian = tested on: OVCAR-3 ovarian
NCI-H23 lung = tested on: NCI-H23 lung
MDA-MB-435 = tested on: MDA-MB-435
A498 renal = tested on: A498 renal
SK-OV-3 ovarian = tested on: SK-OV-3 ovarian
HS 578T breast = tested on: HS 578T breast
MALME-3M melanoma = tested on: MALME-3M melanoma
DU-145 prostate = tested on: DU-145 prostate
KM12 colon = tested on: KM12 colon
RXF 393 renal = tested on: RXF 393 renal
HCC-2998 colon = tested on: HCC-2998 colon
NCI-H460 lung = tested on: NCI-H460 lung
HOP-62 NSCLC = tested on: HOP-62 NSCLC
SNB-19 CNS = tested on: SNB-19 CNS
HL-60(TB) leukemia = tested on: HL-60(TB) leukemia
786-0 renal = tested on: 786-0 renal
UACC-62 melanoma = tested on: UACC-62 melanoma
OVCAR-5 ovarian = tested on: OVCAR-5 ovarian
A549 NSCLC = tested on: A549 NSCLC
K-562 leukemia = tested on: K-562 leukemia
NCI-H522 lung = tested on: NCI-H522 lung
SF-539 CNS = tested on: SF-539 CNS
HCT-116 colon = tested on: HCT-116 colon
UO-31 renal = tested on: UO-31 renal
SR leukemia = tested on: SR leukemia
LOX IMVI melanoma = tested on: LOX IMVI melanoma
ACHN renal = tested on: ACHN renal
SNB-75 CNS = tested on: SNB-75 CNS
SK-MEL-28 melanoma = tested on: SK-MEL-28 melanoma
U251 CNS = tested on: U251 CNS
HOP-92 NSCLC = tested on: HOP-92 NSCLC
MCF7 breast = tested on: MCF7 breast
NCI-H226 lung = tested on: NCI-H226 lung
SW-620 colon = tested on: SW-620 colon
SK-MEL-2 melanoma = tested on: SK-MEL-2 melanoma
MDA-MB-231 breast = tested on: MDA-MB-231 breast
TK-10 renal = tested on: TK-10 renal
NCI/ADR-RES ovarian = tested on: NCI/ADR-RES ovarian
BT-549 breast = tested on: BT-549 breast
T-47D breast = tested on: T-47D breast
OVCAR-4 ovarian = tested on: OVCAR-4 ovarian
HCT-15 colon = tested on: HCT-15 colon
COLO 205 colon = tested on: COLO 205 colon
SK-MEL-5 melanoma = tested on: SK-MEL-5 melanoma
RPMI-8226 leukemia = tested on: RPMI-8226 leukemia

CN1CCN(c2ccc3c(c2)nc(NNC(=O)c2cnccn2)c2cccn23)CC1
GI50 (CCRF-CEM leukemia): 0.182 µM | TGI (CCRF-CEM leukemia): 1.98 µM | GI50 (UACC-257 melanoma): 2.15 µM | TGI (UACC-257 melanoma): 7.1 µM | GI50 (HT29 colon): 0.505 µM | TGI (HT29 colon): 4.56 µM | GI50 (OVCAR-8 ovarian): 0.383 µM | TGI (OVCAR-8 ovarian): 7.01 µM | GI50 (MOLT-4 leukemia): 0.244 µM | GI50 (CAKI-1 renal): 0.463 µM | TGI (CAKI-1 renal): 5.27 µM | GI50 (PC-3 prostate): 0.386 µM | TGI (PC-3 prostate): 8.51 µM | GI50 (SF-295 CNS): 0.229 µM | TGI (SF-295 CNS): 3.15 µM | GI50 (M14 melanoma): 0.517 µM | TGI (M14 melanoma): 3.87 µM | GI50 (MDA-MB-468 breast): 0.324 µM | TGI (MDA-MB-468 breast): 2.37 µM | GI50 (EKVX NSCLC): 0.277 µM | TGI (EKVX NSCLC): 3.47 µM | GI50 (SF-268 CNS): 0.479 µM | TGI (SF-268 CNS): 13.2 µM | GI50 (SN12C renal): 0.583 µM | TGI (SN12C renal): 11.8 µM | GI50 (IGROV1 ovarian): 0.413 µM | TGI (IGROV1 ovarian): 10.7 µM | GI50 (OVCAR-3 ovarian): 0.406 µM | TGI (OVCAR-3 ovarian): 5.84 µM | GI50 (NCI-H23 lung): 0.801 µM | TGI (NCI-H23 lung): 12.3 µM | GI50 (MDA-MB-435): 1.96 µM | TGI (MDA-MB-435): 18.4 µM | GI50 (A498 renal): 1.77 µM | TGI (A498 renal): 3.32 µM | GI50 (SK-OV-3 ovarian): 0.538 µM | TGI (SK-OV-3 ovarian): 5.02 µM | GI50 (HS 578T breast): 3.6 µM | TGI (HS 578T breast): 70.3 µM | GI50 (MALME-3M melanoma): 1.62 µM | TGI (MALME-3M melanoma): 6.99 µM | GI50 (DU-145 prostate): 0.912 µM | TGI (DU-145 prostate): 8.58 µM | GI50 (KM12 colon): 0.359 µM | TGI (KM12 colon): 14.9 µM | GI50 (RXF 393 renal): 1.06 µM | TGI (RXF 393 renal): 3.35 µM | GI50 (HCC-2998 colon): 0.453 µM | TGI (HCC-2998 colon): 5.8 µM | GI50 (NCI-H460 lung): 0.229 µM | TGI (NCI-H460 lung): 4.72 µM | GI50 (HOP-62 NSCLC): 0.361 µM | TGI (HOP-62 NSCLC): 11.3 µM | GI50 (SNB-19 CNS): 0.812 µM | TGI (SNB-19 CNS): 14.6 µM | GI50 (HL-60(TB) leukemia): 0.175 µM | TGI (HL-60(TB) leukemia): 1.65 µM | GI50 (786-0 renal): 0.401 µM | TGI (786-0 renal): 2.4 µM | GI50 (UACC-62 melanoma): 0.444 µM | TGI (UACC-62 melanoma): 2.71 µM | GI50 (OVCAR-5 ovarian): 1.18 µM | TGI (OVCAR-5 ovarian): 12.1 µM | GI50 (A549 NSCLC): 0.768 µM | TGI (A549 NSCLC): 12.1 µM | GI50 (K-562 leukemia): 0.631 µM | TGI (K-562 leukemia): 11.6 µM | GI50 (NCI-H522 lung): 0.944 µM | TGI (NCI-H522 lung): 6.69 µM | GI50 (SF-539 CNS): 0.645 µM | TGI (SF-539 CNS): 6.83 µM | GI50 (HCT-116 colon): 0.259 µM | TGI (HCT-116 colon): 5.61 µM | GI50 (UO-31 renal): 0.0964 µM | TGI (UO-31 renal): 1.51 µM | GI50 (SR leukemia): 0.16 µM | GI50 (LOX IMVI melanoma): 0.203 µM | TGI (LOX IMVI melanoma): 6.25 µM | GI50 (ACHN renal): 0.256 µM | TGI (ACHN renal): 1.74 µM | GI50 (SNB-75 CNS): 2.93 µM | TGI (SNB-75 CNS): 18 µM | GI50 (SK-MEL-28 melanoma): 0.719 µM | TGI (SK-MEL-28 melanoma): 12.1 µM | GI50 (U251 CNS): 0.37 µM | TGI (U251 CNS): 11.7 µM | GI50 (HOP-92 NSCLC): 0.564 µM | TGI (HOP-92 NSCLC): 5.54 µM | GI50 (MCF7 breast): 0.697 µM | TGI (MCF7 breast): 7.5 µM | GI50 (NCI-H226 lung): 0.801 µM | TGI (NCI-H226 lung): 3.12 µM | GI50 (SW-620 colon): 0.638 µM | TGI (SW-620 colon): 12.6 µM | GI50 (SK-MEL-2 melanoma): 1.21 µM | TGI (SK-MEL-2 melanoma): 6.14 µM | GI50 (MDA-MB-231 breast): 0.607 µM | TGI (MDA-MB-231 breast): 6.95 µM | GI50 (TK-10 renal): 0.158 µM | TGI (TK-10 renal): 2.32 µM | GI50 (NCI/ADR-RES ovarian): 0.829 µM | TGI (NCI/ADR-RES ovarian): 2.97 µM | GI50 (BT-549 breast): 0.849 µM | TGI (BT-549 breast): 13.4 µM | GI50 (T-47D breast): 1.72 µM | TGI (T-47D breast): 9.44 µM | GI50 (OVCAR-4 ovarian): 0.605 µM | TGI (OVCAR-4 ovarian): 12.9 µM | GI50 (HCT-15 colon): 0.109 µM | TGI (HCT-15 colon): 1.79 µM | GI50 (COLO 205 colon): 0.445 µM | TGI (COLO 205 colon): 9.94 µM | GI50 (SK-MEL-5 melanoma): 1.09 µM | TGI (SK-MEL-5 melanoma): 2.77 µM | GI50 (RPMI-8226 leukemia): 0.756 µM | TGI (RPMI-8226 leukemia): 12.7 µM
